Like-named read-outs stand apart in the source and are kept apart here.
What was measured:
[1] = system: SARS-CoV-2; experiment: microbe, parasite or virus in culture; type: cell-based; settings: for EC50: read-out: Antiviral Activity against SARS-CoV-2 Vero EC50; for EC90: read-out: Antiviral Activity against SARS-CoV-2 Vero EC90; for inhibition at 20 µM: read-out: inhibition of SARS-CoV-2 in the initial antiviral evaluation assay
[2] = system: SARS-CoV-2; experiment: SARS-CoV-2 antiviral activity assay in Calu-3 cells; type: cell-based
[3] = Cytotoxicity in Calu3 cells; settings: human
[4] = system: SARS-CoV-2; experiment: Time-of-drug-addition assay in Vero cells; type: cell-based; settings: compound at EC90, Vero cells, MOI 0.1
[5] = system: SARS-CoV-2 pseudovirus; experiment: microbe, parasite or virus in culture; type: cell-based; settings: for inhibition at 1.1 µM / inhibition at 3.3 µM / inhibition at 10 µM / inhibition at 30 µM: Severe acute respiratory syndrome-related coronavirus, Huh7.5 cells, vs untreated sample, read-out: SARS-CoV-2 Pseudovirus Entry Inhibition (%)
[6] = target: SARS-CoV-2 RNA polymerase complex (nsp12/nsp7/nsp8) (Severe acute respiratory syndrome coronavirus 2, UniProt P0DTD1); experiment: SARS-CoV-2 RdRp primer extension assay; type: biochemical; settings: 14-nucleotide RNA product on gel
[7] = target: SARS-CoV-2 nsp5 (3CL protease) (Severe acute respiratory syndrome coronavirus 2, UniProt P0DTD1); settings: nsp5, 50 µM compound vs DMSO
[8] = target: SARS-CoV-2 nsp12 (RdRp) (Severe acute respiratory syndrome coronavirus 2, UniProt P0DTD1); settings: nsp12, 50 µM compound vs DMSO
[9] = target: SARS-CoV-2 nsp14 (Severe acute respiratory syndrome coronavirus 2, UniProt P0DTD1); settings: nsp14, 50 µM compound vs DMSO
[10] = system: SARS-CoV-2 3CL; settings: enzyme-inhibition experiments ref 31; read-out: IC50, antiprotease activity against SARS-CoV-2 3CL; cited from earlier work
[11] = system: SARS-CoV-2; settings: Vero E6 cells ref 31; cited from earlier work
[12] = system: SARS-CoV-2 3CL protease (nsp5); parameters: method as in PMID 32746637; settings: previous report ref 29; read-out: IC50, enzymatic activity of SARS-CoV-2 3CL protease (nsp5); cited from earlier work
[13] = MTS cytotoxicity assay in Vero cells; settings: African green monkey
[14] = Severe acute respiratory syndrome coronavirus 2, Vero, 48 h
[15] = Severe acute respiratory syndrome coronavirus 2, 48 h, Vero cells, MOI 0.1, virus yield 2 days post-treatment
[16] = Severe acute respiratory syndrome coronavirus 2, Vero
[17] = Severe acute respiratory syndrome coronavirus 2, human Calu-3 cells, read-out: Antiviral Activity against SARS-CoV-2 Calu-3 EC50
[18] = Severe acute respiratory syndrome coronavirus 2, human Calu-3 cells, read-out: Antiviral Activity against SARS-CoV-2 Calu-3 EC90

SMILES: CCC(CC)COC(=O)[C@H](C)N[P@](=O)(OC[C@H]1O[C@@](C#N)(c2ccc3c(N)ncnn23)[C@H](O)[C@@H]1O)Oc1ccccc1 [Remdesivir, reference compound]
- EC50 [1, 14]: 1 ± 0.1 µM
- EC90 [1, 14]: 3.3 ± 0.3 µM
- EC50 ([2]; Severe acute respiratory syndrome coronavirus 2, Calu-3, read-out: Antiviral Activity against SARS-CoV-2 Calu-3 EC50): 140 ± 20 nM
- EC90 ([2]; Severe acute respiratory syndrome coronavirus 2, Calu-3, read-out: Antiviral Activity against SARS-CoV-2 Calu-3 EC90): 0.5 ± 0.03 µM
- CC50 [3]: > 100 µM

SMILES: O=c1cc(-c2ccccc2)oc2cc(O)c(O)c(O)c12 [Baicalein, baicalein]
- EC50 [1, 15]: 4.5 ± 0.2 µM
- EC90 [1, 15]: 7.6 ± 0.3 µM
- inhibition at 20 µM [1, 16]: 99.8%
- EC50 [2, 17]: 1200 ± 30 nM
- EC90 [2, 18]: 6.2 ± 0.04 µM
- time of addition post-infection up to which replication is significantly inhibited [4]: up to 8 h
- inhibitory activity on SARS-CoV-2 cell entry (in words) [5]: no inhibitory activity
- inhibition at 1.1 µM [5]: -2%
- inhibition at 3.3 µM [5]: -1.9%
- inhibition at 10 µM [5]: 3.9%
- inhibition at 30 µM [5]: 14.6%
- inhibition of SARS-CoV-2 RdRp activity (in words) [6]: more potent inhibition of SARS-CoV-2 RdRp activity compared to baicalin
- ΔTm [7]: 0.9 °C
- ΔTm [8]: 3.9 °C
- ΔTm [9]: 1.5 °C
- IC50 [10]: 0.94 µM
- EC50 [11]: 2.94 µM
- CC50 ([3]; Calu3 cells): 91 ± 0.05 µM

SMILES: O=C(O)[C@H]1O[C@@H](Oc2cc3oc(-c4ccccc4)cc(=O)c3c(O)c2O)[C@H](O)[C@@H](O)[C@@H]1O [Baicalin, baicalin]
- EC50 [1, 15]: 9 ± 0.08 µM
- EC90 [1, 15]: 15.8 ± 0.2 µM
- inhibition at 20 µM [1, 16]: 98%
- EC50 [2, 17]: 8000 ± 110 nM
- EC90 [2, 18]: 15.1 ± 0.2 µM
- time of addition post-infection up to which replication is significantly inhibited [4]: up to 6 h
- inhibitory activity on SARS-CoV-2 cell entry (in words) [5]: no inhibitory activity
- inhibition at 1.1 µM [5]: -12.1%
- inhibition at 3.3 µM [5]: -11.9%
- inhibition at 10 µM [5]: -6.6%
- inhibition at 30 µM [5]: -3.3%
- inhibition of SARS-CoV-2 RdRp activity (in words) [6]: inhibit the activity of the SARS-CoV-2 RdRp
- IC50 [12]: 34.7 µM
- IC50 [10]: 6.41 µM
- EC50 [11]: 27.9 µM
- CC50 [3]: > 100 µM
- CC50 at 4 days [13]: > 100 µM

Reference: article PMC8143456 (Microorganisms, 2021)
